Test results as given in patent publication US8552013B2, “Heterocyclic compounds based on N6-substituted adenine, methods of their preparation, their use for preparation of drugs, cosmetic preparations and growth regulators, pharmaceutical preparations, cosmetic preparations and growth regulators containing these compounds” (USTAV Experimentalni Botaniky Akademie Ved Ceske Republiky, priority 2001, dated 2013).
Like-named read-outs stand apart in the source and are kept apart here.

Legend:
[1] = test system: Amaranthus caudatus cotyledon/hypocotyl explants; assay: Amaranthus bioassay, betacyanin content; format: in vivo; conditions: betacyanin content at the concentration with highest activity
Protocol: Standard Amaranthus bioassay was performed with several modifications. The seeds of Amaranthus caudatus var. atropurpurea were surface-sterilised in 10% N-chlorobenzenesulfonamide (w/v) for 10 min and washed 5 times in deionized water. They were placed in 14 cm Petri dishes containing paper tissues saturated with deionized water. After 72 h of cultivation at 25° C. in darkness, the roots of the seedlings were cut off. The explants, consisting of two cotyledons and hypocotyls, were placed in 5 cm Petri dishes on two layers of filter paper soaked in 1 ml of incubation medium containing 10 μmol NA2HPO4-KH2PO4, pH 6.8, 5 μmol tyrosine and the cytokinin to be tested. There were 20 explants per dish. The procedure was carried out under a green safe light in a darkroom. After a 48 h of incubation at 25° C. in darkness, betacyanin was extracted by freezing the explants in 4 ml […] acetic acid. The concentration of betacyanin was determined by comparing the absorbance at 537 nm and 620 nm as follows: ΔA=[…] nm-A620 nm. From the obtained data, the concentration with highest activity was selected for each compound tested. Relative activity of the compound at this concentration was calculated (Tab. 6). […] The values shown in table 8 are means of five replicates and the entire test was repeated twice. The cytokinins to be tested were dissolved in dimethylsulfoxide (DMSO) and the solution brought up to 10^-3M with distilled water. This stock was further diluted in the respective media used for the biotest to concentrations ranging from 10^-8M to 10^-4M.

[2] = test system: promyelocytic HL-60 leukemia; assay: Calcein AM cytotoxicity, HL60; format: cell-based, human; conditions: Homo sapiens, read-out: IC 50, HL60
Text: (§1) One of the parameters used, as the basis for cytotoxicity assays, is the metabolic activity of viable cells. For example, a microtiter assay, which uses the Calcein AM, is now widely used to quantitate cell proliferation and cytotoxicity. For instance, this assay is used in drug screening programs and in chemosensitivity testing. Because only metabolically active cells cleave Calcein AM, these assays detect viable cells exclusively. The quantity of reduced Calcein AM corresponds to the number of vital cells in the culture.
(§2) The cells were maintained in Nunc/Corning 80 cm^2 plastic tissue culture flasks and cultured in cell culture medium (DMEM with 5 g/l glucose, 2 mM glutamine, 100 U/ml penicillin, 100 μg/ml streptomycin, 10% fetal calf serum and sodium bicarbonate).
(§3) The cell suspensions that were prepared and diluted according to the particular cell type and the expected target cell density (2.500-30.000 cells per well based on cell growth characteristics) were added by pipette (80 μl) into 96/well microtiter plates. Inoculates were allowed a pre-incubation period of 24 hours at 37° C. and 5% CO2 for stabilisation. Four-fold dilutions of the intended test concentration were added at time zero in 20 μl aliquots to the microtiter plate wells. Usually, test compound was evaluated at six 4-fold dilutions. […] All drug concentrations were examined in duplicates. Incubations of cells with the test compounds lasted for 72 hours at 37° C., in 5% CO2 atmosphere and 100% humidity. At the end of incubation period, the cells were assayed by using the Calcein AM. Ten microliters of the stock solution were pipetted into each well and incubated further for 1 hours. Fluorescence (FD) was measured with the Labsystem FIA Reader Fluoroscan Ascent (UK).

[3] = test system: tobacco callus Nicotiana tabacum L. cv. Wisconsin 38; assay: Cytokinin-dependent tobacco callus growth; format: cell-based; conditions: fresh callus weight at the concentration with highest activity
Protocol: Cytokinin-dependent tobacco callus Nicotiana tabacum L. cv. Wisconsin 38 was maintained at 25° C. in darkness on modified Murashige-Skoog medium, containing per 1 liter: 4 μmol nicotinic acid, 2.4 μmol pyridoxine hydrochloride, 1.2 μmol thiamine, 26.6 μmol glycine, 1.37 μmol glutamine, 1.8 μmol myo-inositol, 30 g of sucrose, 8 g of agar, 5.37 μmol α-naphtylacetic acid (NAA) and 0.5 μmol benzylaminopurine (BAP). Subcultivation was carried out every three weeks. Fourteen days before the bioassay, the callus tissue was transferred to the media without 6-benzylaminopurine (BAP). Biological activity was determined from the increase in fresh callus weight after four weeks of cultivation. Five replicates were prepared for each cytokinin concentration and the entire test was repeated twice. From the obtained data, the concentration with highest activity was selected for each compound tested. Relative activity of the compound at this concentration was calculated (Tab. 6). The activity obtained for 10^−4 M 6-benzylaminopurine (BAP) was postulated as 100%. The cytokinins to be tested were dissolved in dimethylsulfoxide (DMSO) and the solution brought up to 10^−3M with distilled water. This stock was further diluted in the respective media used for the biotest to concentrations ranging from 10^−8M to 10^−4M.

[4] = test system: K-562; assay: Calcein AM cytotoxicity, K-562; format: cell-based; conditions: Homo sapiens, K562, 72 h, read-out: IC 50, K-562
Text: as §1, §2, §3

[5] = test system: Triticum aestivum cv. Hereward leaf tips; assay: Retention of chlorophyll in excised wheat leaf tips; format: in vivo; conditions: chlorophyll retention at the concentration with highest activity
Protocol: Seeds of winter wheat, Triticum aestivum cv. Hereward, were washed under running water for 24 hours and then sown on vermiculite soaked with Knop's solution. They were placed in the grown chamber at 25° C. with a 16/8 h light period at 50 μmol.m^−2.s^−1. After 7 days, the first leaf was fully developed and the second leaf had started to grow. A tip section of the first leaf, approximately 35 mm long, was removed from 5 seedlings and trimmed slightly to a combined weight of 100 mg. The basal ends of the five leaf tips were placed in the wells of a microtiter polystyrene plate containing 150 μl of a cytokinin solution each. The entire plate was inserted into a plastic box lined with paper tissues soaked in distilled water to prevent leaf sections from drying out. After a 96 h incubation in the dark at 25° C., the leaves were removed and chlorophyll extracted by heating at 80° C. for 10 min in 5 ml of 80% ethanol (v/v). The sample volume was then restored to 5 ml by the addition of 80% ethanol (v/v). The absorbency of the extract was recorded at 665 nm. In addition, chlorophyll extracts from fresh leaves and leaf tips incubated in deionised water were measured. From the obtained data, the concentration with highest activity was selected for each compound tested. Relative activity of the compound at this concentration was calculated (Tab. 6). The activity obtained for 10^−4 M 6-benzylaminopurine (BAP) was postulated as 100%. The values shown are means of five replicates and the whole experiment was repeated twice. The cytokinins to be tested were dissolved in dimethylsulfoxide (DMSO) and the solution brought up to 10^−3M with distilled water. This stock was further diluted in distilled water to concentrations ranging from 10^−8M to 10^−4M.

[6] = test system: breast carcinoma cell line MCF-7; assay: Calcein AM cytotoxicity, MCF7; format: cell-based, human; conditions: Homo sapiens, read-out: IC 50, MCF7
Text: as §1, §2, §3

[7] = test system: T-lymphoblastic leukemia cell line CEM; assay: Calcein AM cytotoxicity, CEM; format: cell-based, human
Text: as §1, §2, §3

[8] = test system: Rosa hybrida (pot rose cultivar) explants; assay: In vitro and post vitro shoot multiplication and rooting of rose; format: in vivo
Protocol: The aim of this experiment was to test whether the new compounds are of practical use in tissue culture practice. The multiplication rate was investigated and the post vitro effects on rooting were examined. Rosa hybrida (pot rose cultivar) was cultured in 350 ml vessels with a screw on polycarbonate lid. Each culture vessel contained 100 ml autoclaved medium (120° C., 20 min). The cultures were maintained at 23±2° C. under a 16 h photoperiod at 40 μM m^−2 s^−1 PAR. The basal medium (BMR) contained Murashige and Skoog (1962) macroelements, microelements and vitamins, 95 μM NaFeEDTA, 555 μM myo-inositol, 111 mM sucrose, 1.332 mM glycine, 684 μM L-glutamine and 7 g/l agar. This medium was supplemented with 10 μM BA, mT, oMeOBAP or mMeOBAP (compound no. 14 and 15, respectively). The control medium didn't contain any cytokinin. After a culture period of 8 weeks, the number of induced shoots per explant was determined, as well as root number/explant and total root length/explant. The roots were removed and the explants (shoot clusters) were planted in unfertilised peat. After four weeks of acclimatising in a fog unit, root number and root length was determined.

[9] = test system: HOS; assay: Calcein AM cytotoxicity, HOS; format: cell-based; conditions: Homo sapiens, HOS, 72 h
Text: as §1
Human T-lymphoblastic leukemia cell line CEM; promyelocytic HL-60 and monocytic U937 leukemias; breast carcinoma cell lines MCF-7, BT549, MDA-MB-231; glioblastoma U87MG cells; cervical carcinoma cells HELA; sarcoma cells U2OS and Saos2; hepatocellular carcinoma HepG2; mouse fibroblasts NIH3T3; mouse immortalized bone marrow macrophages B2.4 and B10A.4; P388D1 and L1210 leukemia; B16 and B16F10 melanomas were used for routine screening of compounds. The cells were maintained in Nunc/Corning 80 cm^2 plastic tissue culture flasks and cultured in cell culture medium (DMEM with 5 g/l glucose, 2 mM glutamine, 100 U/ml penicillin, 100 μg/ml streptomycin, 10% fetal calf serum and sodium bicarbonate).
The cell suspensions that were prepared and diluted according to the particular cell type and the expected target cell density (2.500-30.000 cells per well based on cell growth characteristics) were added by pipette (80 μl) into 96/well microtiter plates. Inoculates were allowed a pre-incubation period of 24 hours at 37° C. and 5% CO2 for stabilisation. Four-fold dilutions of the intended test concentration were added at time zero in 20 μl aliquots to the microtiter plate wells. Usually, test compound was evaluated at six 4-fold dilutions. In routine testing, the highest well concentration was […], but it can be the matter of change dependent on the agent. All drug concentrations were examined in duplicates. Incubations of cells with the test compounds lasted for 72 hours at 37° C., in 5% CO2 atmosphere and 100% humidity. At the end of incubation period, the cells were assayed by using the Calcein AM. Ten microliters of the stock solution were pipetted into each well and incubated further for 1 hours. Fluorescence (FD) was measured with the Labsystem FIA Reader Fluoroscan Ascent (UK). The tumour cell survival (GI50) was calculated using the following equitation: TCS═(FDdrug exposed well/mean FDcontrol wells)×100%. The GI50 value, the drug concentration lethal to 50% of the tumour cells, was calculated from the obtained dose response curves (FIG. 1).

[10] = Ex vitro, four weeks of acclimatising

Row | SMILES | activity (%) [10^−5 mol · l^−1 BAP = 100%] [1] | IC50 ([2]; HL-60, 72 h) | Activity (%) [10^−4 mol · l^−1 BAP = 100%] [3] | IC50 [4] | Activity (%) [10^−4 mol · l^−1 BAP = 100%] [5] | IC50 ([6]; MCF7, 72 h) | IC50 ([7]; Homo sapiens, 72 h) | other results
1 | Fc1ccc(CNc2ncnc3nc[nH]c23)c(F)c1F [6-(2,3,4-trifluorobenzylamino)purine] | 94 (±3) % | > 167 µM | 76 (±4) % | > 167 µM | 131 (±22) % | > 167 µM |  | 
2 | Fc1ccc(CNc2ncnc3nc[nH]c23)c(F)c1 [6-(2,4-difluorobenzylamino)purine] | 88 (±7) % | > 167 µM | 95 (±1) % | > 167 µM | 139 (±2) % | > 167 µM | 140 µM | IC50 ([7]; 72 hours, listed as 2,4diFBAP): 146 µM
3 | COc1ccccc1CNc1ncnc2nc[nH]c12 [6-(2-methoxybenzylamino)purine] | 77 (±5) % |  | 79 (±5) % |  | 269 (±12) % |  |  | Root number per plant [8, 10]: 2.5; Total root length per plant [8, 10]: 8.5 cm; Flower number per explant ([8]; In vitro, 10 μM, 8 weeks): 0.29; Number of new shoots per explant ([8]; In vitro, 10 μM, 8 weeks): 1.0; Root number per explant ([8]; In vitro, 10 μM, 8 weeks): 0.0; Total root length per explant ([8]; In vitro, 10 μM, 8 weeks): 0.0 cm; IC50 [9]: > 167 µM
4 | Clc1ccc(CNc2ncnc3nc[nH]c23)cc1Cl [6-(3,4-dichlorobenzylamino)purine] | 63 (±10) % |  | 45 (±7) % |  | 117 (±22) % |  |  | 
5 | Fc1cc(F)cc(CNc2ncnc3nc[nH]c23)c1 [6-(3,5-difluorobenzylamino)purine] | 108 (±2) % |  | 97 (±3) % |  | 156 (±4) % |  |  | 
6 | COc1cc(CNc2ncnc3nc[nH]c23)cc(OC)c1 [6-(3,5-dimethoxybenzylamino)purine] | 1.5 (±1) % | > 167 µM |  | > 167 µM | 16 (±1) % | > 167 µM | > 167 µM | 
7 | Brc1cccc(CNc2ncnc3nc[nH]c23)c1 [6-(3-bromobenzylamino)purine] | 71 (±5) % |  | 85 (±11) % |  | 48 (±6) % |  |  | 
8 | O=[N+]([O-])c1cccc(CNc2ncnc3nc[nH]c23)c1 [6-(3-nitrobenzylamino)purine] | 66 (±7) % | > 167 µM |  | > 167 µM | 60 (±15) % | > 167 µM | > 167 µM | 
9 | Brc1ccc(CNc2ncnc3nc[nH]c23)cc1 [6-(4-bromobenzylamino)purine] | 17 (±7) % |  | 15 (±9) % |  | 30 (±15) % |  |  | 
10 | Fc1ccc(CNc2ncnc3nc[nH]c23)cc1 [6-(4-fluorobenzylamino)purine] | 44 (±4) % |  | 122 (±12) % |  | 95.5 (±3.5) % |  |  | IC50 [9]: > 167 µM
11 | Nc1ncnc2nc[nH]c12 [Adenine] |  | > 167 µM |  | > 167 µM |  | > 167 µM | > 167 µM | 
12 | C/C(=C\CNc1ncnc2[nH]cnc12)CO [Zeatin, reference compound] |  |  |  |  |  |  |  | IC50 ([2]; HL-60, 72 hours): > 167 µM; IC50 ([7]; Homo sapiens, 72 hours): > 167 µM; IC50 ([6]; MCF7, 72 hours): > 167 µM
